Where a name gives a salt, the structure may show the parent alone. One block for each compound: values may come before it.
Key:
C2C12 cells = experiment: Oxygen consumption rate (OCR) of C2C12 cells, extracellular flux analyzer (basal respiration, ATP synthesis, maximal respiration); assay type: cell-based; details: 30 µM
Procedure: A DMSO solution of 3.5 mg/mL of quinoid-type berberrubine was added to C2C12 cells in Dulbecco's modified Eagle (DMEM) medium containing 10% fetal bovine serum (FBS), penicillin, and streptomycin, such that the final concentration was 30 µM (FIG. 4A).
As a control, the same amount of water was added to the C2C12 cells described above.
During this period, the oxygen consumption rate (OCR) of the C2C12 cells was measured over time using an extracellular flux analyzer.
The OCR during the period between the addition of the ATP synthase inhibitor and the addition of the uncoupling agent, the OCR during the period between the addition of the uncoupling agent and the addition of the mitochondrial complex inhibitor, and the OCR in the period after the addition of the mitochondrial complex inhibitor each correlate with the amount of basal respiration, ATP synthesis, and maximal respiration in mitochondria. Thus, the amount of basal respiration, ATP synthesis, and maximal respiration in mitochondria were evaluated using OCR at the points of 30, 60, and 90 minutes as indicators.

[1] = tested on: mitochondria isolated from cardiomyocytes of mice; experiment: OCR of mitochondria isolated from cardiomyocytes of treated mice, flux analyzer; assay type: in vivo; details: 12 weeks after start; adduct 0.5 mg/mL in drinking water; quinoid-type 0.5 mg/mL in diet
From the text: Moreover, mitochondria were isolated from cardiomyocytes of mice 12 weeks after the start of administration using a standard method. 23A and 23B.

[2] = literature value; cited from earlier work
PINK1-knockout MEF cells = experiment: Tom20 immunofluorescence staining, content of mitochondria in PINK1-knockout MEF cells (Parkinson's disease model); assay type: cell-based, Mouse; details: 30 µM, 48 hours after addition
Procedure: (§1) 48 hours after addition, Tom20, which is a mitochondrial outer membrane protein, was detected by immunofluorescence staining. For the detection of Tom20, the anti-Tom20 antibody (Santa Cruz, sc-11415) was used.
Note that PINK1 is the gene responsible for Parkinson's disease, and PINK1 deficiency causes mitochondrial dysfunction associated with Parkinson's disease. Therefore, PINK1-knockout MEF cells are used as a model for patients affected by Parkinson's disease.

mitochondrial mRNA = experiment: Quantitative RT-PCR of mitochondrial mRNA in aged mice; assay type: in vivo; details: mice from 24 months of age, 12 weeks after start; adduct 0.5 mg/mL in drinking water; quinoid-type 0.5 mg/mL in diet
From the text: Moreover, the results of quantifying the mRNA expression of mitochondria in the mice 12 weeks after the start of administration by means of quantitative RT-PCR are shown in FIG. 19.
Moreover, the results of quantifying the expression of Mitol which is mRNA of mitochondria in the mice 12 weeks after the start of administration by means of quantitative RT-PCR are shown in FIG. 22.

tau proteins = experiment: Western blotting of tau proteins in Neuro2A cells with aggregated tau; assay type: cell-based; details: 30 µM, 8 hours of culturing
Procedure: Neuro2A cells were introduced with ΔN-P301Ltau-CRY2olig by transfection. One day after introduction, nocodazole was added to stop the cell cycle, and subsequent blue light irradiation for 24 hours induced the aggregation of tau proteins in the cells.
After 8 hours of culturing after addition, the tau proteins in the cells were detected by means of Western blotting using an antibody against phosphorylated Tau at position S396 (pS396), an antibody against phosphorylated Tau at position S422 (pS422), an antibody against full length Tau (JM), and an antibody against the C-terminal region of Tau (tauC). The tau proteins were detected at around 100 kDa.

mouse spermatozoa = experiment: Sperm motility and MitoTracker staining after oral administration to mice; assay type: in vivo
Procedure: Male C57BL/6NJcl mice aged 9 to 10 weeks were orally administered 1.25% agar containing 0.35 mg/mL of quinoid-type berberrubine or 1.25% agar not containing quinoid-type berberrubine for 2 weeks. The oral administration was performed by placing a container containing this agar in a cage with the mice, such that the mice could constantly ingest this agar from the container (subsequent oral administration of agar to mice was performed in the same manner). At 20 weeks of age, the mice were anesthetized isoflurane (KANTO KAGAKU), euthanized by cervical dislocation, and had their testes and epididymis removed. The removed epididymis was cut into pieces with scissors in 1 mL of phosphate buffered saline (PBS) and then placed at room temperature for 1 hour, thereby preparing sperm samples. 20 µL of the sample was transferred to a glass bottom dish, and mitochondria and nuclei were stained by MitoTracker (manufactured by Thermo Fisher Scientific) and Hoechst (manufactured by NACALAI TESQUE, INC.), respectively.

mouse visceral fat = experiment: Accumulation of visceral fat in mice; assay type: in vivo; details: male mice aged 50 weeks; oral, 1.25% agar containing 0.35 mg/mL for 2 months
Procedure: Male C57BL/6NJcl mice aged 50 weeks were orally administered 1.25% agar containing 0.35 mg/mL of quinoid-type berberrubine or 1.25% agar not containing quinoid-type berberrubine (control) for 2 months. At the end of the period, accumulation of visceral fat in the mice was observed.

mice irradiated with UV = experiment: Skin of UV-irradiated mice, visual observation; assay type: in vivo; details: oral, 1.25% agar containing 0.35 mg/mL for 2 months; UV 3 times a week for 8 weeks
Procedure: Male C57BL/6NJcl mice aged 8 weeks were orally administered 1.25% agar containing 0.35 mg/mL of quinoid-type berberrubine or 1.25% agar not containing quinoid-type berberrubine (control) for 2 months. The skin of the mice during the same period was irradiated with UV 3 times a week for 8 weeks. The irradiation dose was 1 mW/cm^2 for 70 seconds (70 mJ/cm^2) in the first week, 1 mW/cm^2 for 80 seconds (80 mJ/cm^2) in the second week, 1 mW/cm^2 for 90 seconds (90 mJ/cm^2) in the third week, and 1 mW/cm^2 for 100 seconds (100 mJ/cm^2) in the fourth week and thereafter. At the end of the same period, the skin of the mice was visually observed.

[3] = tested on: cardiac failure and myocardial fibrosis markers; experiment: Quantitative RT-PCR of cardiac failure and myocardial fibrosis markers in aged mice; assay type: in vivo; details: mice from 24 months of age, 12 weeks after start; adduct 0.5 mg/mL in drinking water; quinoid-type 0.5 mg/mL in diet
From the text: Moreover, the results of quantifying cardiac failure and myocardial fibrosis markers in the mice 12 weeks after the start of administration by means of quantitative RT-PCR are shown in FIG. 18.
Moreover, the results of quantifying cardiac failure and myocardial fibrosis markers in the mice 12 weeks after the start of administration by means of quantitative RT-PCR are shown in FIG. 21.

brown fat cells = experiment: TMRM/Hoechst fluorescence microscopy of primary cultured brown fat cells; assay type: cell-based, mice; details: 30 µM, 48 hours after addition
Procedure: Brown fat cells removed from fetal C57BL/6NJcl mice were cut into pieces with scissors in an isolation buffer solution (0.123 M of sodium chloride, 5 mM of glucose, 5 mM of potassium chloride, 1.3 mM of calcium chloride, 100 mM of HEPES-NaOH (pH 7.4), 4% BSA) containing 1 mg/mL of collagenase, and warmed in a water bath at 37 °C for 30 minutes. After removal of aggregates using a cell strainer, the cells were collected by centrifugation at 1000 x g for 5 minutes and suspended in a DMEM medium containing 20% FBS, thereby preparing primary cultured cells of the brown fat cells.
Moreover, as a control, the same amount of DMSO as in the DMSO solution of quinoid-type berberrubine was added to the primary cultured cells.
The primary cultured cells cultured for 48 hours after addition had the nuclei stained with Hoechst (manufactured by NACALAI TESQUE, INC.) and mitochondria stained with tetramethylrhodamine methyl ester (TMRM, manufactured by Thermo Fisher Scientific) and then were observed under a fluorescence microscope (magnification: 60x).

HeLa cells = experiment: Cancer cell growth, trypan blue cell count; assay type: cell-based, human; details: 30 µM; 24, 48, and 72 hours after addition
Procedure: Cells were collected at 24, 48, and 72 hours after addition and stained with trypan blue, and the number of cells were measured. Note that the HeLa cells are cell lines derived from human uterus cancer cells and are widely used as model cells for cancer.

[4] = tested on: mitochondrial respiratory chain supercomplexes; experiment: Formation of mitochondrial respiratory chain supercomplexes, FRET between GFP-complex I and RFP-complex IV in C2C12 cells; assay type: cell-based; details: 3, 10, 30, or 60 µM; 24 hours after addition
Procedure: At the point of 24 hours after addition, formation of a mitochondrial respiratory chain supercomplex was detected by detecting FRET between GFP and RFP, resulting from the association of complex I and complex IV.

[5] = tested on: Mouse fetal fibroblast (MEF) cells; experiment: Tom20 immunofluorescence staining, content of mitochondria in MEF cells; assay type: cell-based; details: 30 µM, 48 hours after addition
Procedure: as §1

C57BL/6N24 mice = experiment: M-mode echocardiography in aged mice; assay type: in vivo; details: mice from 24 months of age, 12 weeks after start; adduct 0.5 mg/mL in drinking water; quinoid-type 0.5 mg/mL in diet
From the text: The results of echocardiography using the M-mode echocardiography technique on the mice 12 weeks after the start of administration are shown in FIG. 16.
The results of echocardiography using the M-mode echocardiography technique on the mice 12 weeks after the start of administration are shown in FIG. 20.

From the text for physchem: Determine the minimum amount (mL) of the solvent that can completely dissolve the berberrubine-related compound by changing the volume of the solvent, as appropriate. Calculate the solubility (g/mL) of each berberrubine-related compound in each solvent from the used berberrubine-related compound (1 g) and the minimum volume (mL) of the solvent.
By changing the volume of the solvent, as appropriate, the minimum amount (mL) of the solvent that can completely dissolve the berberrubine-related compound was determined. From the used berberrubine-related compound (1 g) and the minimum volume (mL) of the solvent, the solubility (g/mL) of each berberrubine-related compound in each solvent was determined.

solubility at 0.5 h (physchem; methanol): 34 mg/mL | solubility at 0.5 h (physchem; water): 30 mg/mL
SMILES: COc1ccc2cc3n(cc-2c1=O)CCc1cc2c(cc1-3)OCO2 [berberrubine acetate salt]

SMILES: COc1ccc2cc3n(cc-2c1=O)CCc1cc2c(cc1-3)OCO2 [quinoid-type berberrubine, 10-methoxy-5,6-dihydro-9H-[1,3]dioxolo[4,5-g]isoquinolino [3,2-a]isoquinolin-9-one]
basal respiration in mitochondria, enhancement compared to the controls (C2C12 cells; 24 hours after addition, OCR at 30 minutes): about 4 fold | ATP synthesis in mitochondria, enhancement compared to the controls (C2C12 cells; 24 hours after addition, OCR at 60 minutes): about 4 fold | maximal respiration in mitochondria, enhancement compared to the controls (C2C12 cells; 24 hours after addition, OCR at 90 minutes): about 4 fold | ATP synthesis in mitochondria, compared to the addition of the berberrubine acetic acid adduct (C2C12 cells; C2C12 cells): about 2.5 fold | basal respiration in mitochondria, compared to the addition of the berberrubine acetic acid adduct (C2C12 cells; C2C12 cells): about 2.5 fold | maximal respiration in mitochondria, compared to the addition of the berberrubine acetic acid adduct (C2C12 cells; C2C12 cells): about 2.6 fold | oxygen consumption rate (OCR) in State 2 (ADP-limited state) compared to the control [1]: increased | oxygen consumption rate (OCR) in State 3 (activated respiratory state) compared to the control [1]: increased | oxygen consumption rate (OCR) in State 3u (uncoupled state) compared to the control [1]: increased | oxygen consumption rate (OCR) in State 4o (oligomycin-induced state) compared to the control [1]: increased | SOLUBILITY (g/mL) OF BERBERRUBINE-RELATED COMPOUND IN 1 mL OF SOLVENT, WATER [2]: 0.000013 (LITERAT URE VALUE) g/mL | content of mitochondria in the cells (PINK1-knockout MEF cells): increased | expression of Mitol compared to the control (mitochondrial mRNA): increase | expression level of full-length Tau (tau proteins): no significant changes | ratio of the expression level of phosphorylated Tau at position S396 with respect to that of full-length Tau (pS396-tau/JM), reduction compared to the control (tau proteins): about 35% | ratio of the expression level of phosphorylated Tau at position S422 with respect to that of full-length Tau (pS422-tau/JM), reduction compared to the control (tau proteins): no significant changes | number of spermatozoa in which mitochondria were stained with MitoTracker, increase compared to the control (mouse spermatozoa; 1.25% agar containing 0.35 mg/mL for 2 weeks): about twofold | sperm motility compared to the control (mouse spermatozoa; quinoid-type: 1.25% agar containing 0.35 mg/mL for 2 weeks, adduct: 2 mg/mL aqueous solution): more actively motile | visceral fat accumulation compared to mice not administered (mouse visceral fat): inhibited | number of wrinkles compared to mice not administered (mice irradiated with UV): fewer | skin darkening compared to mice not administered (mice irradiated with UV): inhibited | wrinkle depths compared to mice not administered (mice irradiated with UV): shallower | expression levels of cardiac failure markers (Nppa, Nppb, and Myh7) compared to the control [3]: reduced | expression levels of myocardial fibrosis markers (Collagen1 and Ctgf) compared to the control [3]: reduced | increase in amount of active mitochondria having normal membrane potential, compared to the addition of a berberrubine acetic acid adduct (brown fat cells): to a greater extent | staining of mitochondria by TMRM (active mitochondria having normal membrane potential) (brown fat cells): strong staining | ratio of the number of HeLa cells after administration with respect to the number of HeLa cells in the control (HeLa cells): decreased over time | formation of mitochondrial respiratory chain supercomplexes (FRET between GFP and RFP) [4]: promoted the formation of mitochondrial respiratory chain supercomplexes in a concentration-dependent manner | content of mitochondria in the cells compared to the control [5]: increased | % left ventricular fractional shortening (%FS) compared to the control (C57BL/6N24 mice): increase | left ventricular ejection fraction (LVEF) compared to the control (C57BL/6N24 mice): increase | left ventricular end-diastolic diameter (LVDd) compared to the control (C57BL/6N24 mice): decrease | left ventricular end-systolic diameter (LVDs) compared to the control (C57BL/6N24 mice): decrease | left ventricular filling pressure (E/e') compared to the control (C57BL/6N24 mice): decrease
